# Experimental data taken from patent US9469674B2 (HAINAN UNIVERSITY, dated 2016).
# Test system: Chronic Constriction Injury model of ischiadic nerve (neuralgia)
# Conditions: rat, in vivo
smiles,measurement,value
"CN1CC[C@]23c4c5ccc(O)c4O[C@H]2[C@@H](O)C=C[C@H]3[C@H]1C5 [morphine, reference compound]",analgesic effect on neuralgia,no analgesic effect
same,mechanical threshold after withdrawal,no significant difference
